Experimental data taken from PubChem BioAssay AID1963839 (Molecular Pharmacology Branch, DTP, NCI, 2024).

Tested on: 817829-284-R-J1-PDC complex spheroid viability
Experiment: Anticancer human tumor 817829-284-R-J1-PDC patient-derived colon adenocarcinoma cell line growth inhibition [POLQ]
Settings: for IC50: curve of first compound; for viability, T/C: stronger effect = lower value
How it was run: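 Three-cell-type spheroids modelling solid tumor plus stroma served as the readout system; POL inhibitors were tested individually and in combination, concentration ranges set by clinical Cmax where known.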

[1] = second compound 0.0316 µM, first compound 0.0316 µM
[2] = second compound 0.0316 µM, first compound 0.1 µM
[3] = second compound 0.0316 µM, first compound 0.316 µM
[4] = second compound 0.0316 µM, first compound 1 µM
[5] = second compound 0.0316 µM, first compound 3.16 µM
[6] = second compound 0.0316 µM, first compound 10 µM
[7] = second compound 0.1 µM, first compound 0.0316 µM
[8] = second compound 0.1 µM, first compound 0.1 µM
[9] = second compound 0.1 µM, first compound 0.316 µM
[10] = second compound 0.1 µM, first compound 1 µM
[11] = second compound 0.1 µM, first compound 3.16 µM
[12] = second compound 0.1 µM, first compound 10 µM
[13] = second compound 0.316 µM, first compound 0.0316 µM
[14] = second compound 0.316 µM, first compound 0.1 µM
[15] = second compound 0.316 µM, first compound 0.316 µM
[16] = second compound 0.316 µM, first compound 1 µM
[17] = second compound 0.316 µM, first compound 3.16 µM
[18] = second compound 0.316 µM, first compound 10 µM
[19] = second compound 1 µM, first compound 0.0316 µM
[20] = second compound 1 µM, first compound 0.1 µM
[21] = second compound 1 µM, first compound 0.316 µM
[22] = second compound 1 µM, first compound 1 µM
[23] = second compound 1 µM, first compound 3.16 µM
[24] = second compound 1 µM, first compound 10 µM
[25] = second compound 3.16 µM, first compound 0.0316 µM
[26] = second compound 3.16 µM, first compound 0.1 µM
[27] = second compound 3.16 µM, first compound 0.316 µM
[28] = second compound 3.16 µM, first compound 1 µM
[29] = second compound 3.16 µM, first compound 3.16 µM
[30] = second compound 3.16 µM, first compound 10 µM
[31] = second compound 10 µM, first compound 0.0316 µM
[32] = second compound 10 µM, first compound 0.1 µM
[33] = second compound 10 µM, first compound 0.316 µM
[34] = second compound 10 µM, first compound 1 µM
[35] = second compound 10 µM, first compound 3.16 µM
[36] = second compound 10 µM, first compound 10 µM
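Further: spheroids exposed to compounds for 7 days.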
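Wherever viability, T/C is given: 100% = DMSO vehicle-treated spheroids.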

## CC1COCCN1c1cc(C2(O)CC3CCC(C2)O3)c2cnn(-c3ccn[nH]3)c2n1 (stereo not drawn) + Cc1cccc(N(C)C(=O)C2C(O)CCN2c2nc(C)cc(C(F)(F)F)c2C#N)c1
Second compound 0.0316 µM
  IC50: < 0.0316 µM
Second compound 0.1 µM
  IC50: < 0.0316 µM
Second compound 0.316 µM
  IC50: < 0.0316 µM
Second compound 1 µM
  IC50: < 0.0316 µM
Second compound 3.16 µM
  IC50: < 0.0316 µM
Second compound 10 µM
  IC50: < 0.0316 µM
[1]
  viability, T/C: 28.6%
[2]
  viability, T/C: 10.7%
[3]
  viability, T/C: 4.5%
[4]
  viability, T/C: 3.59%
[5]
  viability, T/C: 2.99%
[6]
  viability, T/C: 2.26%
[7]
  viability, T/C: 29.8%
[8]
  viability, T/C: 11.4%
[9]
  viability, T/C: 4.57%
[10]
  viability, T/C: 3.83%
[11]
  viability, T/C: 3.59%
[12]
  viability, T/C: 2.95%
[13]
  viability, T/C: 28.6%
[14]
  viability, T/C: 9.76%
[15]
  viability, T/C: 3.78%
[16]
  viability, T/C: 3.72%
[17]
  viability, T/C: 3.01%
[18]
  viability, T/C: 1.9%
[19]
  viability, T/C: 24.4%
[20]
  viability, T/C: 9.97%
[21]
  viability, T/C: 4.66%
[22]
  viability, T/C: 4.17%
[23]
  viability, T/C: 2.77%
[24]
  viability, T/C: 2.21%
[25]
  viability, T/C: 26.8%
[26]
  viability, T/C: 9.02%
[27]
  viability, T/C: 5.06%
[28]
  viability, T/C: 3.24%
[29]
  viability, T/C: 2.62%
[30]
  viability, T/C: 2.27%
[31]
  viability, T/C: 23%
[32]
  viability, T/C: 10.3%
[33]
  viability, T/C: 6.05%
[34]
  viability, T/C: 3.31%
[35]
  viability, T/C: 2.74%
[36]
  viability, T/C: 2.44%

## CCCS(=O)(=O)Nc1ccc(F)c(C(=O)c2c[nH]c3ncc(-c4ccc(Cl)cc4)cc23)c1F + Nc1ccc(C#CCN(C(=O)Cc2ncc(C(F)(F)F)cc2C(F)(F)F)c2ccc(F)cc2)nn1
Second compound 0.0316 µM
  IC50: 4.47 µM
Second compound 0.1 µM
  IC50: 4.54 µM
Second compound 0.316 µM
  IC50: 3.46 µM
Second compound 1 µM
  IC50: 3.75 µM
Second compound 3.16 µM
  IC50: 4.49 µM
Second compound 10 µM
  IC50: 3.68 µM
[1]
  viability, T/C: 90%
[2]
  viability, T/C: 75.5%
[3]
  viability, T/C: 93.2%
[4]
  viability, T/C: 91.3%
[5]
  viability, T/C: 67.2%
[6]
  viability, T/C: 9.94%
[7]
  viability, T/C: 90.4%
[8]
  viability, T/C: 55.9%
[9]
  viability, T/C: 81.7%
[10]
  viability, T/C: 74.7%
[11]
  viability, T/C: 68.2%
[12]
  viability, T/C: 10.4%
[13]
  viability, T/C: 85%
[14]
  viability, T/C: 85.4%
[15]
  viability, T/C: 83.2%
[16]
  viability, T/C: 75.8%
[17]
  viability, T/C: 53.2%
[18]
  viability, T/C: 11.5%
[19]
  viability, T/C: 84%
[20]
  viability, T/C: 76.7%
[21]
  viability, T/C: 88.2%
[22]
  viability, T/C: 66.3%
[23]
  viability, T/C: 58.6%
[24]
  viability, T/C: 13.9%
[25]
  viability, T/C: 95.2%
[26]
  viability, T/C: 62.6%
[27]
  viability, T/C: 78.7%
[28]
  viability, T/C: 84.2%
[29]
  viability, T/C: 66.1%
[30]
  viability, T/C: 13.2%
[31]
  viability, T/C: 88.9%
[32]
  viability, T/C: 64.8%
[33]
  viability, T/C: 75.8%
[34]
  viability, T/C: 75.9%
[35]
  viability, T/C: 55.6%
[36]
  viability, T/C: 13.6%

## COc1cccc(OCCCN)c1-c1cc(Nc2cnc(C#N)cn2)n[nH]1 + COC1C(OC(N)=O)C(O)C(Oc2ccc3c(O)c(NC(=O)c4ccc(O)c(CC=C(C)C)c4)c(=O)oc3c2C)OC1(C)C
Second compound 0.0316 µM
  IC50: < 0.00316 µM
Second compound 0.1 µM
  IC50: < 0.00316 µM
Second compound 0.316 µM
  IC50: < 0.00316 µM
Second compound 1 µM
  IC50: < 0.00316 µM
Second compound 3.16 µM
  IC50: < 0.00316 µM
Second compound 10 µM
  IC50: < 0.00316 µM
Second compound 0.0316 µM, first compound 0.00316 µM
  viability, T/C: 29.9%
Second compound 0.0316 µM, first compound 0.01 µM
  viability, T/C: 8.3%
[1]
  viability, T/C: 5.67%
[2]
  viability, T/C: 5.85%
[3]
  viability, T/C: 4.68%
[4]
  viability, T/C: 3.39%
Second compound 0.1 µM, first compound 0.00316 µM
  viability, T/C: 26%
Second compound 0.1 µM, first compound 0.01 µM
  viability, T/C: 11.2%
[7]
  viability, T/C: 6.67%
[8]
  viability, T/C: 5.76%
[9]
  viability, T/C: 5.35%
[10]
  viability, T/C: 3.07%
Second compound 0.316 µM, first compound 0.00316 µM
  viability, T/C: 29.5%
Second compound 0.316 µM, first compound 0.01 µM
  viability, T/C: 8.79%
[13]
  viability, T/C: 6.28%
[14]
  viability, T/C: 5.55%
[15]
  viability, T/C: 4.77%
[16]
  viability, T/C: 3.42%
Second compound 1 µM, first compound 0.00316 µM
  viability, T/C: 39.1%
Second compound 1 µM, first compound 0.01 µM
  viability, T/C: 8.54%
[19]
  viability, T/C: 6.62%
[20]
  viability, T/C: 4.99%
[21]
  viability, T/C: 4.97%
[22]
  viability, T/C: 3.65%
Second compound 3.16 µM, first compound 0.00316 µM
  viability, T/C: 44.4%
Second compound 3.16 µM, first compound 0.01 µM
  viability, T/C: 8.05%
[25]
  viability, T/C: 5.78%
[26]
  viability, T/C: 4.98%
[27]
  viability, T/C: 4.52%
[28]
  viability, T/C: 4.11%
Second compound 10 µM, first compound 0.00316 µM
  viability, T/C: 26.2%
Second compound 10 µM, first compound 0.01 µM
  viability, T/C: 8.47%
[31]
  viability, T/C: 6.63%
[32]
  viability, T/C: 5.63%
[33]
  viability, T/C: 4.76%
[34]
  viability, T/C: 4.08%

## O=C(c1cc(Cc2n[nH]c(=O)c3ccccc23)ccc1F)N1CCN(C(=O)C2CC2)CC1 + COC1C(OC(N)=O)C(O)C(Oc2ccc3c(O)c(NC(=O)c4ccc(O)c(CC=C(C)C)c4)c(=O)oc3c2C)OC1(C)C
Second compound 0.0316 µM
  IC50: 2.18 µM
Second compound 0.1 µM
  IC50: 4.58 µM
Second compound 0.316 µM
  IC50: 3.28 µM
Second compound 1 µM
  IC50: 4.29 µM
Second compound 3.16 µM
  IC50: 3.83 µM
Second compound 10 µM
  IC50: 4.49 µM
[1]
  viability, T/C: 71.5%
[2]
  viability, T/C: 109%
[3]
  viability, T/C: 88.3%
[4]
  viability, T/C: 61.2%
[5]
  viability, T/C: 49.8%
[6]
  viability, T/C: 33.7%
[7]
  viability, T/C: 94.9%
[8]
  viability, T/C: 86.5%
[9]
  viability, T/C: 83.7%
[10]
  viability, T/C: 68.2%
[11]
  viability, T/C: 68.7%
[12]
  viability, T/C: 25.8%
[13]
  viability, T/C: 105%
[14]
  viability, T/C: 98.4%
[15]
  viability, T/C: 85.7%
[16]
  viability, T/C: 90.1%
[17]
  viability, T/C: 50%
[18]
  viability, T/C: 32.2%
[19]
  viability, T/C: 88.3%
[20]
  viability, T/C: 99.9%
[21]
  viability, T/C: 81.4%
[22]
  viability, T/C: 75.7%
[23]
  viability, T/C: 61.2%
[24]
  viability, T/C: 24.3%
[25]
  viability, T/C: 114%
[26]
  viability, T/C: 92.5%
[27]
  viability, T/C: 75.2%
[28]
  viability, T/C: 70.3%
[29]
  viability, T/C: 63.2%
[30]
  viability, T/C: 30.2%
[31]
  viability, T/C: 90.5%
[32]
  viability, T/C: 95.3%
[33]
  viability, T/C: 68.8%
[34]
  viability, T/C: 102%
[35]
  viability, T/C: 60.7%
[36]
  viability, T/C: 25.7%
